Results published in ChEMBL document CHEMBL1128127, “The design of potent and stable benzisothiazolone inhibitors of human leukocyte elastase” (Bioorg Med Chem Lett, 1995).
pKi: −log10 of the molar value.

Columns and labels:
in vitro = conditions: human, blood
Description: Half-life (human blood stability)

Neutrophil elastase = target: T1, Neutrophil elastase (Homo sapiens, UniProt P08246)
T1 sequence (P08246 whole entry): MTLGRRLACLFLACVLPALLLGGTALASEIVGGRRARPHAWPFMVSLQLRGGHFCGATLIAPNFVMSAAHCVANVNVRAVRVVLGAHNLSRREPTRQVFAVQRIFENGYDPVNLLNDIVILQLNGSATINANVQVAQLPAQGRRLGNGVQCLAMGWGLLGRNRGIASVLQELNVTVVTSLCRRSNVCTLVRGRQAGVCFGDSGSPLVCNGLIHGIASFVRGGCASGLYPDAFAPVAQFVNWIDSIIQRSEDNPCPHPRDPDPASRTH
Description: Ratio of Koff to that of Kon was determined on human leukocyte elastase(HLE)

[1] = target: T2, Neutrophil elastase (Homo sapiens) (UniProt P08246)
T2 sequence (whole entry): T1 sequence (P08246 whole entry)
Description: (§1) Evaluated for inhibitory activity against Human leukocyte elastase (HLE)

[2] = target: T2, Neutrophil elastase (Homo sapiens); remark: listed apart in the source
Description: as §1

[3] = Half-life was determined; 88% of parent remained after incubation for 120 min (human blood stability); format: ADME, tissue-based

Row | Compound | half-life (in vitro) [min] | pKi (Neutrophil elastase) | k off [1] [s⁻¹] | k on [2] [M⁻¹ s⁻¹] | half-life [3] [min]
1 | O=C1c2ccccc2S(=O)(=O)N1CSc1nnnn1-c1ccccc1 | < 5 | – | – | – | –
2 | CCc1cccc2c1C(=O)N(CSc1nnnn1-c1ccccc1)S2(=O)=O | 54 | – | – | – | –
3 | CC(C)c1cccc2c1C(=O)N(CSc1nnnn1-c1ccccc1)S2(=O)=O | 45 | – | – | – | –
4 | CCC(CC)c1cccc2c1C(=O)N(CSc1nnnn1-c1ccccc1)S2(=O)=O | 100 | – | – | – | –
5 | COc1cc(C(C)C)c2c(c1)S(=O)(=O)N(COC(=O)c1c(Cl)cccc1Cl)C2=O | 140 | – | – | – | –
6 | CCC(C)c1cccc2c1C(=O)N(CSc1nnnn1-c1ccccc1)S2(=O)=O (stereo unspecified) | 58 | – | – | – | –

The remaining lines, values ahead:

Row | half-life (in vitro) [min] | pKi (Neutrophil elastase) | k off [1] [s⁻¹] | k on [2] [M⁻¹ s⁻¹] | half-life [3] [min] | Compound
7 | < 15 | 10.52 | 3e-05 | 1e+06 | – | CC(C)c1cc(F)cc2c1C(=O)N(COC(=O)c1c(Cl)cccc1Cl)S2(=O)=O
8 | 37 | 9.70 | 4.7e-05 | 240000 | – | CCCc1c(OC)c(OC)cc2c1C(=O)N(CSc1nnnn1-c1ccccc1)S2(=O)=O
9 | 30 | – | 2.7e-05 | 900000 | – | CC(C)c1cccc2c1C(=O)N(COC(=O)c1c(Cl)cccc1Cl)S2(=O)=O
10 | 110 | 8.96 | 2.4e-05 | 21500 | – | CC(C)c1cc(N2CCN(C)CC2)cc2c1C(=O)N(COC(=O)c1c(Cl)cccc1Cl)S2(=O)=O
11 | 55 | – | – | – | – | CCCc1cccc2c1C(=O)N(CSc1nnnn1-c1ccccc1)S2(=O)=O
12 | 65 | 8.28 | 6.1e-05 | 11800 | – | COc1cc2c(c(C(C)C)c1OC)C(=O)N(CSc1nnnn1-c1ccccc1)S2(=O)=O
13 | – | < 5.70 | – | – | > 120 | CC(C)(C)c1cccc2c1C(=O)N(CSc1nnnn1-c1ccccc1)S2(=O)=O
14 | – | 8.66 | 2.7e-05 | 12300 | – | CC(C)c1cc(N(C)C)cc2c1C(=O)N(COC(=O)c1c(Cl)cccc1Cl)S2(=O)=O
